Reference: ChEMBL document CHEMBL1909046, “DrugMatrix in vitro pharmacology data”

What was measured:
[1] = target: T1, Alpha-2A adrenergic receptor (Homo sapiens, UniProt P08913); type: cell membranes, Sf9, Membrane; further: in other assays of this panel Not Active means under 50% inhibition at 10 µM
T1 sequence (P08913 whole entry): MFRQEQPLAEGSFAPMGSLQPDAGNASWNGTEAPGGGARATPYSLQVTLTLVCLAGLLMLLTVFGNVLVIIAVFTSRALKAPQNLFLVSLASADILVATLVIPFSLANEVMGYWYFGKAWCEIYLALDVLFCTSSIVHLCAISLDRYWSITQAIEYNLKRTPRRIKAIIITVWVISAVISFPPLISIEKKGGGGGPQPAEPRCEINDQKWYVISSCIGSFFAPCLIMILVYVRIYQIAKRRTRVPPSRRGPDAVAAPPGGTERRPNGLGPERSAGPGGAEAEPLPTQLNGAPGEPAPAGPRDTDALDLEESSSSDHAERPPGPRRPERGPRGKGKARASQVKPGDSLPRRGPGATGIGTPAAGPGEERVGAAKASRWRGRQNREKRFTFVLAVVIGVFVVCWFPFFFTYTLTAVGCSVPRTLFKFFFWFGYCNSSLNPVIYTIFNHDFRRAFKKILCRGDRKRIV

Glycine receptor = Glycine receptor (Rattus norvegicus, UniProt P22771+P24524+P07727+P20781); type: cell membranes, Wistar, Spinal cord, Membrane; further: in other assays of this panel Not Active means under 50% inhibition at 10 µM
Progesterone receptor = target: T2, Progesterone receptor (Bos taurus, UniProt Q690N0); experiment: DRUGMATRIX: Progesterone radioligand binding (ligand: [3H] R-5020); type: tissue-based, Uterus; conditions: Not Active = under 50% inhibition at 10 µM
T2 sequence (Q690N0 whole entry): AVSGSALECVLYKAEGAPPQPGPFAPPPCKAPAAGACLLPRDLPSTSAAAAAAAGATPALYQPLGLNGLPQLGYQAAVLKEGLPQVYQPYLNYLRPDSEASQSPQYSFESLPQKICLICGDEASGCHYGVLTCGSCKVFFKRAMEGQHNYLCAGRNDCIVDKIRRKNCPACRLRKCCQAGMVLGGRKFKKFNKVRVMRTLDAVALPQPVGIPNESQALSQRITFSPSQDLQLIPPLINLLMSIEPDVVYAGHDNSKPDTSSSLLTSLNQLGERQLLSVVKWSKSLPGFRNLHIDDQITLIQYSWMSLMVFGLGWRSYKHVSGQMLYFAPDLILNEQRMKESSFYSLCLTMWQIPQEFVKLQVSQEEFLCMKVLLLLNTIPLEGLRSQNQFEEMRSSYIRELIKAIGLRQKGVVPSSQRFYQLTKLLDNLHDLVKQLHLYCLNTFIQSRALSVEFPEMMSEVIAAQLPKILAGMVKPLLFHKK

[2] = target: Tyrosine-protein kinase Lck (Homo sapiens, UniProt P06239); experiment: DRUGMATRIX: Protein Tyrosine Kinase, LCK enzyme inhibition (substrate: Poly(Glu:Tyr)); type: cell-based, Insect cells; conditions: Not Active = under 50% inhibition at 10 µM
[3] = DRUGMATRIX: Purinergic P2X radioligand binding (ligand: [3H] alpha, beta-Methylene-ATP); type: cell membranes, Oryctolagus cuniculus, New Zealand albino, Urinary bladder, Membrane; conditions: Not Active = under 50% inhibition at 10 µM

Sequence of Tyrosine-protein kinase Lck (P06239 whole entry): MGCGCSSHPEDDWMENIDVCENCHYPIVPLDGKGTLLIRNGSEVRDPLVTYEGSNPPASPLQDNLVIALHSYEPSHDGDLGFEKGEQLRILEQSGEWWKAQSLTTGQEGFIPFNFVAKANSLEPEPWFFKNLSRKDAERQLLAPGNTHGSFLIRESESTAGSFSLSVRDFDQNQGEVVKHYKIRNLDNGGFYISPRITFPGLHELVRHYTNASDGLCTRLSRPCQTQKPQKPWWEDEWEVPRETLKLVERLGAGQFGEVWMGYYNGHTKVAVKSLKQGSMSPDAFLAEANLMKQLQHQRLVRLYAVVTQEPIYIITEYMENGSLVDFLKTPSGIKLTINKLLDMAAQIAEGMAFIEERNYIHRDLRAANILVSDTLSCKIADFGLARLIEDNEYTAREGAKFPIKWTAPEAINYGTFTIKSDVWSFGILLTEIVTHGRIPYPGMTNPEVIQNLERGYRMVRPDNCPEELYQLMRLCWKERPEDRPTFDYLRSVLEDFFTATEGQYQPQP

For `COc1ccc2c3c1O[C@H]1C[C@@H](O)C=C[C@@]31CCN(C)C2` [GALANTAMINE], the IC50 ([1]; sf9) was “Not Active”, the IC50 (Glycine receptor) was “Not Active” and the IC50 (Progesterone receptor) was “Not Active”. The IC50 ([2]; insect cells) was “Not Active”, the IC50 [3] was “Not Active” and the Ki [3] was “Not Active”.

For `Nc1ccn([C@@H]2O[C@H](CO)[C@@H](O)C2(F)F)c(=O)n1` [GEMCITABINE], the IC50 ([1]; sf9) was “Not Active”, the IC50 (Glycine receptor) was “Not Active” and the IC50 (Progesterone receptor) was “Not Active”. The IC50 ([2]; insect cells) was “Not Active”, the IC50 [3] was “Not Active” and the Ki [3] was “Not Active”.

With `CC(C)=CCC/C(C)=C/CO` [GERANIOL] the IC50 ([1]; sf9) was “Not Active”, the IC50 (Glycine receptor) was “Not Active” and the IC50 (Progesterone receptor) was “Not Active”. For the same compound, the IC50 ([2]; insect cells) was “Not Active”, the IC50 [3] was “Not Active” and the Ki [3] was “Not Active”.

For `Oc1c(Cl)cc(Cl)c(Cl)c1Cc1c(O)c(Cl)cc(Cl)c1Cl` [HEXACHLOROPHENE], the IC50 ([1]; read-out: IC50) was 5.5 µM, the Ki ([1]; read-out: Ki) was 2.06 µM and the IC50 (Glycine receptor) was “Not Active”. For the same compound, the IC50 (Progesterone receptor) was “Not Active”, the IC50 ([2]; read-out: IC50) was 2.43 µM and the IC50 [3] was “Not Active”. The Ki [3] was “Not Active”.

In the case of `NNc1nncc2ccccc12` [HYDRALAZINE], the IC50 ([1]; sf9) is reported as “Not Active”, the IC50 (Glycine receptor) is reported as “Not Active” and the IC50 (Progesterone receptor) is reported as “Not Active”. The IC50 ([2]; insect cells) was “Not Active”, the IC50 [3] was “Not Active” and the Ki [3] was “Not Active”.

For `CC(=O)[C@@]1(O)CC[C@H]2[C@@H]3CCC4=CC(=O)CC[C@]4(C)[C@H]3CC[C@@]21C` [HYDROXYPROGESTERONE], the IC50 ([1]; sf9) was “Not Active”, the IC50 (Glycine receptor) was “Not Active” and the IC50 (Progesterone receptor; read-out: IC50) was 0.012 µM. For the same compound, the Ki (Progesterone receptor; read-out: Ki) was 0.00155 µM, the IC50 ([2]; insect cells) was “Not Active” and the IC50 [3] was “Not Active”. For the same compound, the Ki [3] was “Not Active”.

With `COC1=C(OC)C(=O)C(CCCCCCCCCCO)=C(C)C1=O` [IDEBENONE] the IC50 ([1]; sf9) was “Not Active”, the IC50 (Glycine receptor) was “Not Active” and the IC50 (Progesterone receptor) was “Not Active”. For the same compound, the IC50 ([2]; insect cells) was “Not Active”, the IC50 [3] was “Not Active” and the Ki [3] was “Not Active”.

In the case of `CC(C)NNC(=O)c1ccncc1` [IPRONIAZID], the IC50 ([1]; sf9) is reported as “Not Active”, the IC50 (Glycine receptor) is reported as “Not Active” and the IC50 (Progesterone receptor) is reported as “Not Active”. For the same compound, the IC50 ([2]; insect cells) was “Not Active”, the IC50 [3] was “Not Active” and the Ki [3] was “Not Active”.

In the case of `Cc1c(OCC(F)(F)F)ccnc1C[S+]([O-])c1nc2ccccc2[nH]1` (configuration not stated) [LANSOPRAZOLE], the IC50 ([1]; sf9) is reported as “Not Active”, the IC50 (Glycine receptor) is reported as “Not Active” and the IC50 (Progesterone receptor) is reported as “Not Active”. The IC50 ([2]; insect cells) was “Not Active”, the IC50 [3] was “Not Active” and the Ki [3] was “Not Active”.

In the case of `COc1ccc2[nH]cc(CCNC(C)=O)c2c1` [MELATONIN], the IC50 ([1]; sf9) is reported as “Not Active”, the IC50 (Glycine receptor) is reported as “Not Active” and the IC50 (Progesterone receptor) is reported as “Not Active”. The IC50 ([2]; insect cells) was “Not Active”, the IC50 [3] was “Not Active” and the Ki [3] was “Not Active”.

With `NC(=O)C[S+]([O-])C(c1ccccc1)c1ccccc1` (configuration not stated) [MODAFINIL] the IC50 ([1]; sf9) was “Not Active”, the IC50 (Glycine receptor) was “Not Active” and the IC50 (Progesterone receptor) was “Not Active”. For the same compound, the IC50 ([2]; insect cells) was “Not Active”, the IC50 [3] was “Not Active” and the Ki [3] was “Not Active”.

For `CCN(CC)CCOCCC1=CCC2CC1C2(C)C` (configuration not stated) [MYRTECAINE], the IC50 ([1]; sf9) was “Not Active”, the IC50 (Glycine receptor) was “Not Active” and the IC50 (Progesterone receptor) was “Not Active”. The IC50 ([2]; insect cells) was “Not Active”, the IC50 [3] was “Not Active” and the Ki [3] was “Not Active”.

For `O=C(O)c1cccnc1Nc1cccc(C(F)(F)F)c1` [NIFLUMIC ACID], the IC50 ([1]; sf9) was “Not Active”, the IC50 (Glycine receptor) was “Not Active” and the IC50 (Progesterone receptor) was “Not Active”. The IC50 ([2]; insect cells) was “Not Active”, the IC50 [3] was “Not Active” and the Ki [3] was “Not Active”.

With `O=C(N/N=C/c1ccc([N+](=O)[O-])o1)c1cc([N+](=O)[O-])cc([N+](=O)[O-])c1O` [NIFURSOL] the IC50 ([1]; sf9) was “Not Active”, the IC50 (Glycine receptor) was “Not Active” and the IC50 (Progesterone receptor) was “Not Active”. For the same compound, the IC50 ([2]; insect cells) was “Not Active”, the IC50 [3] was “Not Active” and the Ki [3] was “Not Active”.

For `COC(=O)Nc1nc2ccc(C(=O)c3cccs3)cc2[nH]1` [NOCODAZOLE], the IC50 ([1]; sf9) was “Not Active”, the IC50 (Glycine receptor) was “Not Active” and the IC50 (Progesterone receptor) was “Not Active”. For the same compound, the IC50 ([2]; insect cells) was “Not Active”, the IC50 [3] was “Not Active” and the Ki [3] was “Not Active”.
